ChEMBL document CHEMBL1146424, “New Steroidal Alkaloids from the Roots of Buxus sempervirens” (1997)
The source made the active and inactive calls. The calls are words filed in the database; no cut-off is given here.

What was measured:
Lemna minor [1] = assay: Phytotoxicity against Lemna minor L. at 50 ppm; format: functional
Epidermophyton floccosum = assay: Antifungal activity against Epidermophyton floccosum at […] after 7 days by tube dilution method; format: functional, organism-based
Proteus mirabilis = assay: Antibacterial activity against Proteus mirabilis at 200 ug/100 uL by agar well diffusion assay; format: functional, organism-based
Stachybotrys chartarum = assay: Antifungal activity against Stachybotrys atra at […] after 7 days by tube dilution method; format: functional, organism-based
Lemna minor [2] = assay: Phytotoxicity against Lemna minor L. at 5 ppm; format: functional
Lemna minor [3] = assay: Phytotoxicity against Lemna minor L. at 500 ppm; format: functional
Salmonella typhi = assay: Antibacterial activity against Salmonella typhi at 200 ug/100 uL by agar well diffusion assay; format: functional, organism-based; settings: Salmonella enterica subsp. enterica serovar Typhi
Microsporum canis = assay: Antifungal activity against Microsporum canis at […] after 7 days by tube dilution method; format: functional, organism-based
Escherichia coli = assay: Antibacterial activity against Escherichia coli at 200 ug/100 uL by agar well diffusion assay; format: functional, organism-based
Proteus vulgaris = assay: Antibacterial activity against Proteus vulgaris at 200 ug/100 uL by agar well diffusion assay; format: functional, organism-based
Shigella flexneri = assay: Antibacterial activity against Shigella flexnerii at 200 ug/100 uL by agar well diffusion assay; format: functional, organism-based

C[C@@H]([C@H]1[C@H](O)C[C@@]2(C)[C@@H]3CC[C@@H]4C(=CC[C@H](NC(=O)c5ccccc5)C4(C)C)CC3=CC[C@]12C)N(C)C [16ALPHA-HYDROXY-NA-BENZOYLBUXADINE]
Activity (Lemna minor [1]): 28.6%
Activity (Epidermophyton floccosum): Active
Activity (Proteus mirabilis): Active
Activity (Stachybotrys chartarum): Active
Activity (Lemna minor [2]): 20.3%
Activity (Lemna minor [3]): 46%
Activity (Salmonella typhi): Active
Activity (Microsporum canis): Active
Activity (Escherichia coli): Active
Activity (Proteus vulgaris): Active
Activity (Shigella flexneri): Active
